According to ChEMBL document CHEMBL1136083, “Potent Grb2-SH2 domain antagonists not relying on phosphotyrosine mimics” (Bioorg Med Chem Lett, 2003):
*1 amine or outer side, *2 acyl side, *3 side chain or, on linkers, in order; H or OH if unused. Where a SMILES comes first, the peptide text is derived from it. Bridges are numbered along the chain shown (N, C = ends). [ ]: non-standard residue; d: D form. Gla = N[C@@H](CC(C(=O)O)C(=O)O)C(=O)O; X1 = O=C([C@]1(N[*:1])CC2CCC1C2)[*:2]

What follows are molecules tested against T1, Growth factor receptor-bound protein 2 (Homo sapiens, UniProt P62993) (assay: Inhibitory activity against Growth factor receptor bound protein 2 using ELISA assay).
T1 sequence (P62993 whole entry): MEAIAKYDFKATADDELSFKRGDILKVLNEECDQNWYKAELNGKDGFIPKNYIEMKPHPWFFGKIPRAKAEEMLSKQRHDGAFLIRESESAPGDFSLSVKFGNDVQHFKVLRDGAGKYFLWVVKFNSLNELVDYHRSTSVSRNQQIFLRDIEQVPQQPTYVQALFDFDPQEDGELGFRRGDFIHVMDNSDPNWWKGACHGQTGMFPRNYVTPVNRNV
Work on `CSCC[C@@H]1NC(=O)CNC(=O)[C@H](C(C)C)NC(=O)[C@H](CC(N)=O)NC(=O)[C@H](CCC(=O)O)NC(=O)[C@H](Cc2ccc(O)cc2)NC(=O)[C@H](CC(C)C)NC(=O)[C@H](CCC(=O)O)NC(=O)CSC[C@@H](C(N)=O)NC(=O)[C@H](Cc2ccc(O)cc2)NC1=O` (HELM PEPTIDE1{[O=C(C[*:3])[*:2]].E.L.Y.E.N.V.G.M.Y.C.[am]}$PEPTIDE1,PEPTIDE1,1:R3-11:R3$$$V2.0) yielded an IC50 of 20000 nM.

What follows are molecules tested against T1, Growth factor receptor-bound protein 2 (assay: Binding affinity against Growth factor receptor bound protein 2 using ELISA assay).
For `CSCC[C@H]1NC(=O)CNC(=O)[C@@H](C(C)C)NC(=O)[C@H](CC(N)=O)NC(=O)[C@@H](CCC(=O)O)NC(=O)[C@H](Cc2ccc(O)cc2)NC(=O)[C@@H](CC(C)C)NC(=O)[C@H](CC(C(=O)O)C(=O)O)NC(=O)CSC[C@@H](C(N)=O)NC(=O)[C@H](Cc2ccc(O)cc2)NC1=O`, the IC50 was 991 nM. Molecule `CC(C)C[C@H]1NC(=O)[C@H](CC(C(=O)O)C(=O)O)NC(=O)CSC[C@@H](C(N)=O)NC(=O)[C@H](Cc2ccc(O)cc2)NC(=O)[C@@H](Cc2ccc(-c3ccccc3)cc2)NC(=O)CNC(=O)[C@@H](C(C)C)NC(=O)[C@H](CC(N)=O)NC(=O)C2(CCCCC2)NC(=O)[C@H](Cc2ccc(O)cc2)NC1=O` has an IC50 of 502 nM. `CSCC[C@H]1NC(=O)CNC(=O)[C@@H](C(C)C)NC(=O)[C@H](CC(N)=O)NC(=O)[C@@H](CCCC(=O)O)NC(=O)[C@H](Cc2ccc(O)cc2)NC(=O)[C@@H](CC(C)C)NC(=O)[C@H](CC(C(=O)O)C(=O)O)NC(=O)CSC[C@@H](C(N)=O)NC(=O)[C@H](Cc2ccc(O)cc2)NC1=O` gave an IC50 of 1510 nM. `CSCC[C@H]1NC(=O)CNC(=O)[C@@H](C(C)C)NC(=O)[C@H](CC(N)=O)NC(=O)C2(CCCCC2)NC(=O)[C@H](Cc2ccc(O)cc2)NC(=O)[C@@H](CC(C)C)NC(=O)[C@H](CC(C(=O)O)C(=O)O)NC(=O)CSC[C@@H](C(N)=O)NC(=O)[C@H](Cc2ccc(O)cc2)NC1=O` showed an IC50 of 525 nM. Work on `CC(C)C[C@H]1NC(=O)[C@H](CC(C(=O)O)C(=O)O)NC(=O)CSC[C@@H](C(N)=O)NC(=O)[C@H](Cc2ccc(O)cc2)NC(=O)[C@@H](Cc2ccc3ccccc3c2)NC(=O)CNC(=O)[C@@H](C(C)C)NC(=O)[C@H](CC(N)=O)NC(=O)C2(CCCCC2)NC(=O)[C@H](Cc2ccc(O)cc2)NC1=O` yielded an IC50 of 271 nM. Molecule `CC(C)C[C@H]1NC(=O)[C@H](CC(C(=O)O)C(=O)O)NC(=O)CSC[C@@H](C(N)=O)NC(=O)[C@H](Cc2ccc(O)cc2)NC(=O)[C@@H](Cc2c(F)c(F)c(F)c(F)c2F)NC(=O)CNC(=O)[C@@H](C(C)C)NC(=O)[C@H](CC(N)=O)NC(=O)C2(CCCCC2)NC(=O)[C@H](Cc2ccc(O)cc2)NC1=O` has an IC50 of 238 nM. Work on `CC(C)C[C@H]1NC(=O)[C@H](CC(C(=O)O)C(=O)O)NC(=O)CSC[C@@H](C(N)=O)NC(=O)[C@H](Cc2ccc(O)cc2)NC(=O)[C@@H](CC(C)(C)C)NC(=O)CNC(=O)[C@@H](C(C)C)NC(=O)[C@H](CC(N)=O)NC(=O)C2(CCCCC2)NC(=O)[C@H](Cc2ccc(O)cc2)NC1=O` yielded an IC50 of 244 nM. For `CSCC[C@@H]1NC(=O)CNC(=O)[C@H](C(C)C)NC(=O)[C@H](CC(N)=O)NC(=O)[C@H](CCC(=O)O)NC(=O)[C@H](Cc2ccc(O)cc2)NC(=O)[C@H](CC(C)C)NC(=O)[C@H](CCC(=O)O)NC(=O)CSC[C@@H](C(N)=O)NC(=O)[C@H](Cc2ccc(O)cc2)NC1=O` (HELM PEPTIDE1{[O=C(C[*:3])[*:2]].E.L.Y.E.N.V.G.M.Y.C.[am]}$PEPTIDE1,PEPTIDE1,1:R3-11:R3$$$V2.0), the IC50 was greater than 100000 nM. In the case of `CSCC[C@@H]1NC(=O)CNC(=O)[C@H](C(C)C)NC(=O)[C@H](CC(N)=O)NC(=O)[C@@H]2CCCN2C(=O)[C@H](Cc2ccc(O)cc2)NC(=O)[C@H](CC(C)C)NC(=O)[C@H](CCC(=O)O)NC(=O)CSC[C@@H](C(N)=O)NC(=O)[C@H](Cc2ccc(O)cc2)NC1=O` (HELM PEPTIDE1{[O=C(C[*:3])[*:2]].E.L.Y.P.N.V.G.M.Y.C.[am]}$PEPTIDE1,PEPTIDE1,1:R3-11:R3$$$V2.0), the IC50 is reported as 7830 nM. With `CC(C)C[C@H]1NC(=O)[C@H](CC(C(=O)O)C(=O)O)NC(=O)C[S+]([O-])C[C@@H](C(N)=O)NC(=O)[C@H](Cc2ccc(O)cc2)NC(=O)[C@@H](CC(C)(C)C)NC(=O)CNC(=O)[C@@H](C(C)C)NC(=O)[C@H](CC(N)=O)NC(=O)C2(CCCCC2)NC(=O)[C@H](Cc2ccc(O)cc2)NC1=O` (stereo in doubt; 12) the IC50 was 74.6 nM. In the case of `CC(C)C[C@H]1NC(=O)[C@H](CC(C(=O)O)C(=O)O)NC(=O)C[S+]([O-])C[C@@H](C(N)=O)NC(=O)[C@H](Cc2ccc(O)cc2)NC(=O)[C@@H](CC(C)(C)C)NC(=O)CNC(=O)[C@@H](C(C)C)NC(=O)[C@H](CC(N)=O)NC(=O)C2(CCCCC2)NC(=O)[C@H](Cc2ccc(O)cc2)NC1=O` (stereo in doubt; 13), the IC50 is reported as 747 nM. `CC(C)C[C@H]1NC(=O)[C@H](CC(C(=O)O)C(=O)O)NC(=O)C[S+]([O-])C[C@@H](C(N)=O)NC(=O)[C@H](Cc2ccc(O)cc2)NC(=O)[C@@H](Cc2ccc3ccccc3c2)NC(=O)CNC(=O)[C@@H](C(C)C)NC(=O)[C@H](CC(N)=O)NC(=O)C2(CCCCC2)NC(=O)[C@H](Cc2ccc(O)cc2)NC1=O` (stereo in doubt; 14) gave an IC50 of 314 nM. In the case of `CC(C)C[C@H]1NC(=O)[C@H](CC(C(=O)O)C(=O)O)NC(=O)C[S+]([O-])C[C@@H](C(N)=O)NC(=O)[C@H](Cc2ccc(O)cc2)NC(=O)[C@@H](Cc2ccc3ccccc3c2)NC(=O)CNC(=O)[C@@H](C(C)C)NC(=O)[C@H](CC(N)=O)NC(=O)C2(CCCCC2)NC(=O)[C@H](Cc2ccc(O)cc2)NC1=O` (stereo in doubt; 15), the IC50 is reported as 4860 nM. In the case of `CC(C)C[C@H]1NC(=O)[C@H](CC(C(=O)O)C(=O)O)NC(=O)C[S+]([O-])C[C@@H](C(N)=O)NC(=O)[C@H](Cc2ccc(O)cc2)NC(=O)[C@@H](C2CCCCC2)NC(=O)CNC(=O)[C@@H](C(C)C)NC(=O)[C@H](CC(N)=O)NC(=O)C2(CCCCC2)NC(=O)[C@H](Cc2ccc(O)cc2)NC1=O` (stereo in doubt; 16), the IC50 is reported as 149 nM. With `CC(C)C[C@H]1NC(=O)[C@H](CC(C(=O)O)C(=O)O)NC(=O)C[S+]([O-])C[C@@H](C(N)=O)NC(=O)[C@H](Cc2ccc(O)cc2)NC(=O)[C@@H](C2CCCCC2)NC(=O)CNC(=O)[C@@H](C(C)C)NC(=O)[C@H](CC(N)=O)NC(=O)C2(CCCCC2)NC(=O)[C@H](Cc2ccc(O)cc2)NC1=O` (stereo in doubt; 17) the IC50 was 1410 nM. `CSCC[C@@H]1NC(=O)CNC(=O)[C@H](C(C)C)NC(=O)[C@H](CC(N)=O)NC(=O)[C@@]2(CC3CCC2C3)NC(=O)[C@H](Cc2ccc(O)cc2)NC(=O)[C@H](CC(C)C)NC(=O)[C@H](CC(C(=O)O)C(=O)O)NC(=O)CSC[C@@H](C(N)=O)NC(=O)[C@H](Cc2ccc(O)cc2)NC1=O` (some centres not stated) ({CH2CO}-[Gla]LY[X1]NVGMYC-NH2; thioether N-10) showed an IC50 of 730 nM.
